# According to patent US20100249071A1, “Modulators of S1P and Methods of Making And Using” (Exelixis, Inc., priority 2009, published 2010):
# Where two headings read alike, the source gives them in different places.
# Assays:
# [1] = molecular target: T1, hS1P1R (hEdg1) membrane protein (Homo sapiens, UniProt P21453); test: hS1P1R GTPγS binding assay (Assay 3a); type: biochemical
# T1 construct: purchased Lonza
# Procedure, shortened: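 Membranes (4 μg) expressing hS1P1R incubated 1 h at room temperature with 30 μM GDP, 0.1 nM [^35S]GTPγS, 0.25% fatty acid free BSA and serially diluted agonist in Tris-HCl pH 7.9/NaCl/MgCl2/EGTA buffer. Bound [^35S]GTPγS captured on WGA SPA beads (further 1 h) and counted.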
# S1P1 = molecular target: T2, S1P1 (Homo sapiens, UniProt P21453); test: Tango β-arrestin recruitment assay in U2OS cells (Assay 2b); type: cell-based
# T2 construct: host or cells: U2OS
# Procedure, shortened: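 In this agonist-mode Tango assay, U2OS cells carrying S1P1 and the reporter were serum-starved 48 h, then exposed overnight at 37 °C to compound (10 points, 3-fold, top 1 μM, 1% DMSO). β-Lactamase F460/F530 ratio was normalized to 1 μM S1P, and EC50 was fitted.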
# [2] = molecular target: T3, hS1PR5 (hEdg8) membrane protein (Homo sapiens, UniProt Q9H228); test: hS1P5R GTPγS binding assay (Assay 4); type: biochemical
# T3 construct: expressed in transfected cells; host or cells: CHO
# Procedure, shortened: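 Membranes (5 μg) from CHO cells expressing hS1PR5, incubated 1 h at room temperature with 30 μM GDP, 0.1 nM [35S]GTPγS, 0.25% fatty acid free BSA and serially diluted compound in pH 7.9 Tris buffer with MgCl2. WGA SPA beads added for another 1 h, then bound [35S]GTPγS counted by scintillation.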
# S1P3 = molecular target: T4, S1P3 (Homo sapiens, UniProt Q99500); test: S1P3 Tango β-arrestin recruitment assay in HEK293 cells (Assay 5); type: cell-based
# T4 construct: host or cells: HEK293 (transient transfection)
# Excerpt: For the Tango™ β-arrestin recruitment assay, the cytoplasmic C-terminus of S1P1 was tethered to the tTA transcriptional activator with a linker that contains a cleavage site for the N1a protease from tobacco etch virus (TEV protease). The C-terminus of the human β-arrestin2 protein was fused to TEV protease. Binding of an agonist recruits the βl -arrestin-TEV fusion protein to the receptor resulting in cleavage of the linker and released of tTA to enter the nucleus and subsequently activated a tTA-dependent luciferase reporter gene.
# Assay 2a: Frozen HEK293 cells transiently transfected with receptor cDNAs for S1P1 (Invitrogen) are thawed and suspended in 10 mL of Pro293a-CDM culture medium (Invitrogen) supplemented with 4 mM L-Glutamine (Invitrogen), 1× Pen/Strep (100 units/mL penicillin and 100 μg/mL streptomycin, Invitrogen) and 0.1% fatty acid free BSA (Sigma-Aldrich). Cells are added to the wells of a 384-well white opaque bottom assay plate (PerkinElmer) at 3,000-6,000 cells per well and the plate is incubated for approximately 4 h in a 37° C. incubator. Test compounds are tested at maximum concentrations of 10 μM for the agonist assays. Compounds are diluted in DMSO (10 concentration points, 3-fold each) and added to the assay plate at a 1% final DMSO concentration. For each compound, there are duplicate assay plates and each assay plate has duplicate wells per concentration point. The plate is incubated at 37° C. for 30 min. The efficacy control is 5 μM S1P (Avanti). Following agonist addition, the assay plates are incubated in a 37° C. incubator for 16-18 h. Luciferase assay reagent is added and luminescence measured in an EnVision plate reader (PerkinElmer). To determine agonist activity, percent activity is calculated as [(test compound−background)/(positive control−background)*100], where background is the luminescence of the DMSO alone control and the positive control is the luminescence from cells incubated with the efficacy control 5 μM S1P. The percent activities are plotted against compound concentration to determine EC50 using XLFit (IDBS).
# This assay was conducted using the procedures described in Assay 2a, replacing S1P1 with S1P3.
# T3 sequence (Q9H228 whole entry): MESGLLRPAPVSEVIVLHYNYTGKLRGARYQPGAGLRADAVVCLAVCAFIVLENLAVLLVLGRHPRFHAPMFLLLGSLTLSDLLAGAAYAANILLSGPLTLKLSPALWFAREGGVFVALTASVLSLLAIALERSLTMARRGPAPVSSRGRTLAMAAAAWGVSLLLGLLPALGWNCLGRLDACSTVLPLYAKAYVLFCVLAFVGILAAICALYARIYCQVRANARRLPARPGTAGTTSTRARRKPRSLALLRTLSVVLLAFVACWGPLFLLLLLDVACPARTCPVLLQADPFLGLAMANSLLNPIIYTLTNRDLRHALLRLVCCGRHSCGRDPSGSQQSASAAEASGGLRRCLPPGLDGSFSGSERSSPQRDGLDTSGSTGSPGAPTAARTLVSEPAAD
# T1 sequence (P21453 whole entry): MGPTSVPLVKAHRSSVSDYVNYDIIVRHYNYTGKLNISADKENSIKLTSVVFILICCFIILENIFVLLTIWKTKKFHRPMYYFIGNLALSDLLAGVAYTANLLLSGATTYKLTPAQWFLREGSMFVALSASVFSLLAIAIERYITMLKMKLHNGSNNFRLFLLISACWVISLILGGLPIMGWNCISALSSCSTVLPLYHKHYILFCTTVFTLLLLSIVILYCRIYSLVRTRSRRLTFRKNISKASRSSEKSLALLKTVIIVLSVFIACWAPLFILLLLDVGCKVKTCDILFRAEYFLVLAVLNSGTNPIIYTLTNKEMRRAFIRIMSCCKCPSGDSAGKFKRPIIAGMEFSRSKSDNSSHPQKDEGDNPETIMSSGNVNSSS
# T4 sequence (P32121 whole entry): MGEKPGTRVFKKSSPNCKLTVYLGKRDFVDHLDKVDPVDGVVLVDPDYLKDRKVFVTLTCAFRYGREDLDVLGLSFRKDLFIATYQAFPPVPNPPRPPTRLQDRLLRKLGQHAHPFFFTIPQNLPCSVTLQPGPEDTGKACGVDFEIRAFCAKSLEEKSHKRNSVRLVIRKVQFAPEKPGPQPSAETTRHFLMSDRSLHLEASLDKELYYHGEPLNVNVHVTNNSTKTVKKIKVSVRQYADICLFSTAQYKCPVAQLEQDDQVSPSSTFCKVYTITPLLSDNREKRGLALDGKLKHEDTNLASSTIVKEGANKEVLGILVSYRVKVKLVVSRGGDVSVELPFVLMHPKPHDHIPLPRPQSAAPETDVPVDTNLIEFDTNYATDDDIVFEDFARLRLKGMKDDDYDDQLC
# T4 sequence (Q99500 whole entry): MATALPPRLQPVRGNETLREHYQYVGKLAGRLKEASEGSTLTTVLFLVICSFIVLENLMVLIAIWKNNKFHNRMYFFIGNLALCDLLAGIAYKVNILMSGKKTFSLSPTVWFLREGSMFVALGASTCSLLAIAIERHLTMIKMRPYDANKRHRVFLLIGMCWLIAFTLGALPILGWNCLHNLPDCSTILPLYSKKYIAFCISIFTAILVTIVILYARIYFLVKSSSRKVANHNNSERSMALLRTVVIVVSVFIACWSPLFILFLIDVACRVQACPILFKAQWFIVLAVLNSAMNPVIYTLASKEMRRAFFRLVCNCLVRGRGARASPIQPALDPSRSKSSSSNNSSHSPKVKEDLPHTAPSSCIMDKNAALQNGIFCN
# T2 sequence (P32121 whole entry): as the sequence (P32121 whole entry) above
# T2 sequence (P21453 whole entry): as the sequence (P21453 whole entry) above
Compound,EC50 [1] [µM],EC50 (S1P1; read-out: Assay 2b EC50) [µM],EC50 [2] [µM],EC50 (S1P3; read-out: Assay 5 EC50) [µM],"EC50 (S1P1; * = rEC50 measured rather than EC50, read-out: Assay 2b rEC50 (relative EC50, cells marked *)) [µM]","EC50 (S1P3; * = rEC50 measured rather than EC50, read-out: Assay 5 rEC50 (relative EC50, cells marked *)) [µM]"
"CC(C)Oc1ccc(-c2nnc(-c3cc(F)c(OC[C@H](N)COP(=O)(O)O)cc3Cl)s2)cc1Br [Entry 29, (2S)-2-amino-3-{[4-(5-{3-bromo-4-[(1-methylethyl)oxy]phenyl}-1,3,4-thiadiazol-2-yl)-5-chloro-2-fluorophenyl]oxy}propyl dihydrogen phosphate]",≤ 0.01,≤ 0.01,≤ 0.01,≤ 0.25,–,–
"Cc1cc(-c2nnc(-c3cc(F)c(OC[C@H](N)[C@H](C)O)cc3Cl)s2)cc(NC(C)C)n1 [Entry 63, (2S,3S)-3-amino-4-{[5-chloro-2-fluoro-4-(5-{2-methyl-6-[(1-methylethyl)amino]pyridin-4-yl}-1,3,4-thiadiazol-2-yl)phenyl]oxy}butan-2-ol]",≤ 0.01,0.01 to 0.05,0.01 to 0.05,> 0.25,–,–
"CC(C)Oc1ncc(-c2nnc(-c3cc(F)c(OC[C@@H](N)CO)cc3Cl)s2)cc1Cl [Entry 32, (2S)-2-amino-3-{[5-chloro-4-(5-{5-chloro-6-[(1-methylethyl)oxy]pyridin-3-yl}-1,3,4-thiadiazol-2-yl)-2-fluorophenyl]oxy}propan-1-ol]",0.01 to 0.05,≤ 0.01,0.25 to 2.8,≤ 0.25,–,–
"CC(C)Nc1ccc(-c2nnc(-c3cc(F)c(OC[C@H](N)[C@H](C)O)cc3Cl)s2)cn1 [Entry 56, (2S,3S)-3-amino-4-{[5-chloro-2-fluoro-4-(5-{6-[(1-methylethyl)amino]pyridin-3-yl}-1,3,4-thiadiazol-2-yl)phenyl]oxy}butan-2-ol]",0.25 to 2.8,0.25 to 2.8,> 10,> 10,–,–
"CC(C)Oc1ncc(-c2nnc(-c3cc(F)c(OC[C@H](N)CO)cc3Cl)s2)cc1Cl [Entry 20, (2R)-2-amino-3-{[5-chloro-4-(5-{5-chloro-6-[(1-methylethyl)oxy]pyridin-3-yl}-1,3,4-thiadiazol-2-yl)-2-fluorophenyl]oxy}propan-1-ol]",0.05 to 0.25,0.25 to 2.8,0.25 to 2.8,> 10,–,–
"CC(C)Oc1ncc(-c2nnc(-c3cc(F)c(OCC(N)CO)cc3Cl)s2)cc1Cl (stereo not drawn) [Entry 6, 2-amino-3-{[5-chloro-4-(5-{5-chloro-6-[(1-methylethyl)oxy]pyridin-3-yl}-1,3,4-thiadiazol-2-yl)-2-fluorophenyl]oxy}propan-1-ol]",0.01 to 0.05,≤ 0.01,0.25 to 2.8,≤ 0.25,–,–
"Cc1cc(-c2nnc(-c3cc(F)c(OC[C@H](N)[C@@H](C)OP(=O)(O)O)cc3Cl)s2)cc(NC(C)C)n1 [Entry 94, (1R,2S)-2-amino-3-{[5-chloro-2-fluoro-4-(5-{2-methyl-6-[(1-methylethyl)amino]pyridin-4-yl}-1,3,4-thiadiazol-2-yl)phenyl]oxy}-1-methylpropyl dihydrogen phosphate]",≤ 0.01,–,0.01 to 0.05,≤ 0.25,≤ 0.01,–
"CC(C)N(C)c1cc(-c2nnc(-c3cc(F)c(OCC(N)CO)cc3Cl)s2)ccn1 (stereo not drawn) [Entry 41, 2-amino-3-{[5-chloro-2-fluoro-4-(5-{2-[methyl(1-methylethyl)amino]pyridin-4-yl}-1,3,4-thiadiazol-2-yl)phenyl]oxy}propan-1-ol]",0.25 to 2.8,≤ 0.01,> 10,> 10,–,–
"Cc1cc(-c2nnc(-c3cc(F)c(OC[C@@H](N)[C@@H](C)O)cc3Cl)s2)cnc1NC(C)C [Entry 67, (2R,3R)-3-amino-4-{[5-chloro-2-fluoro-4-(5-{5-methyl-6-[(1-methylethyl)amino]pyridin-3-yl}-1,3,4-thiadiazol-2-yl)phenyl]oxy}butan-2-ol]",0.01 to 0.05,≤ 0.01,0.25 to 2.8,> 10,–,–
"CC(C)Oc1ccc(-c2nnc(-c3cc(F)c(OC[C@H](N)CO)c(Cl)c3)s2)cc1Cl [Entry 40, (2R)-2-amino-3-{[2-chloro-4-(5-{3-chloro-4-[(1-methylethyl)oxy]phenyl}-1,3,4-thiadiazol-2-yl)-6-fluorophenyl]oxy}propan-1-ol]",≤ 0.01,0.01 to 0.05,0.01 to 0.05,> 10,–,–
"CC(C)Oc1ccc(-c2nnc(-c3cc(F)c(OC[C@H](N)[C@H](C)OP(=O)(O)O)cc3Cl)s2)cc1Cl [Entry 69, (1S,2S)-2-amino-3-{[5-chloro-4-(5-{3-chloro-4-[(1-methylethyl)oxy]phenyl}-1,3,4-thiadiazol-2-yl)-2-fluorophenyl]oxy}-1-methylpropyl dihydrogen phosphate]",≤ 0.01,≤ 0.01,0.01 to 0.05,–,–,> 0.25
"CC(C)Oc1ccc(-c2nnc(-c3cc(F)c(OC[C@@H](N)CO)cc3Cl)s2)cc1Cl [Entry 10, (2S)-2-amino-3-{[5-chloro-4-(5-{3-chloro-4-[(1-methylethyl)oxy]phenyl}-1,3,4-thiadiazol-2-yl)-2-fluorophenyl]oxy}propan-1-ol]",≤ 0.01,≤ 0.01,0.01 to 0.05,≤ 0.25,–,–
"CC(C)Nc1ccc(-c2nnc(-c3cc(F)c(OC[C@@H](N)[C@H](C)O)cc3Cl)s2)cn1 [Entry 59, (2S,3R)-3-amino-4-{[5-chloro-2-fluoro-4-(5-{6-[(1-methylethyl)amino]pyridin-3-yl}-1,3,4-thiadiazol-2-yl)phenyl]oxy}butan-2-ol]",0.25 to 2.8,≤ 0.01,0.25 to 2.8,> 10,–,–
"CC(C)Oc1ccc(-c2nnc(-c3cc(F)c(OC[C@@H](N)[C@@H](C)O)cc3Cl)s2)cc1Cl [Entry 74, (2R,3R)-3-amino-4-{[5-chloro-4-(5-{3-chloro-4-[(1-methylethyl)oxy]phenyl}-1,3,4-thiadiazol-2-yl)-2-fluorophenyl]oxy}butan-2-ol]",≤ 0.01,≤ 0.01,0.01 to 0.05,> 0.25,–,–
"CC(C)Oc1ccc(-c2nnc(-c3cc(F)c(OC[C@H](N)[C@@H](C)O)cc3Cl)s2)cc1C#N [Entry 82, 5-[5-(4-{[(2S,3R)-2-amino-3-hydroxybutyl]oxy}-2-chloro-5-fluorophenyl)-1,3,4-thiadiazol-2-yl]-2-[(1-methylethyl)oxy]benzonitrile]",≤ 0.01,≤ 0.01,0.01 to 0.05,> 10,–,–
"(1R,2S)-2-amino-3-{[5-chloro-2-fluoro- 4-(5-{3-methyl-4-[(1- methylethyl)oxy]phenyl}-1,3,4- thiadiazol-2-yl)phenyl]oxy}-1- methylpropyl dihydrogen phosphate [Entry 99]",≤ 0.01,≤ 0.01,0.01 to 0.05,≤ 0.25,–,–
"Cc1cc(-c2nnc(-c3cc(F)c(OC[C@H](N)[C@H](C)OP(=O)(O)O)cc3Cl)s2)cc(NC(C)C)n1 [Entry 95, (1S,2S)-2-amino-3-{[5-chloro-2-fluoro-4-(5-{2-methyl-6-[(1-methylethyl)amino]pyridin-4-yl}-1,3,4-thiadiazol-2-yl)phenyl]oxy}-1-methylpropyl dihydrogen phosphate]",≤ 0.01,≤ 0.01,0.05 to 0.25,> 0.25,–,–
"N#Cc1cc(-c2nnc(-c3cc(F)c(OC[C@H](N)CO)cc3Cl)s2)ccc1OC1COC1 [Entry 49, 5-[5-(4-{[(2R)-2-amino-3-hydroxypropyl]oxy}-2-chloro-5-fluorophenyl)-1,3,4-thiadiazol-2-yl]-2-(oxetan-3-yloxy)benzonitrile]",≤ 0.01,≤ 0.01,0.05 to 0.25,> 10,–,–
